Experiments:
[1] = biological target: 5-hydroxytryptamine receptor 2B (Homo sapiens, UniProt P41595); experiment: GPCRScan assay: inhibition of 5-HT2B; set-up: radioligand conc. used [nm] 1.0 – 2.0, parental cells stable HEK
[2] = biological target: Activated CDC42 kinase 1 (Homo sapiens) (UniProt Q07912); experiment: ACK1(h) Millipore kinase panel; settings: Compound concentration 1.0 uM
[3] = biological target: Serine/threonine-protein kinase A-Raf (Homo sapiens) (UniProt P10398); experiment: A_Raf(h) Millipore kinase panel; settings: Compound concentration 1.0 uM
[4] = biological target: Serine/threonine-protein kinase B-raf (Homo sapiens) (UniProt P15056); experiment: BRaf(h) Millipore kinase panel; settings: Compound concentration 1.0 uM
[5] = biological target: Calcium/calmodulin-dependent protein kinase type II subunit beta (Homo sapiens) (UniProt Q13554); experiment: CaMKIIbeta(h) Millipore kinase panel; settings: Compound concentration 1.0 uM
[6] = biological target: Calcium/calmodulin-dependent protein kinase kinase 2 (Homo sapiens) (UniProt Q96RR4); experiment: CaMKK2(h) Millipore kinase panel; settings: Compound concentration 1.0 uM
[7] = biological target: Cyclin-dependent kinase 2/cyclin E (Homo sapiens) (UniProt P24864+P24941+O96020); experiment: CDK2/cyclinE(h) Millipore kinase panel; assay type: protein-complex assay; settings: Compound concentration 1.0 uM
[8] = biological target: Casein kinase I isoform delta (Homo sapiens) (UniProt P48730); experiment: CK1delta(h) Millipore kinase panel; settings: Compound concentration 1.0 uM
[9] = biological target: Dual specificity protein kinase CLK1 (Homo sapiens) (UniProt P49759); experiment: CLK1(h) Millipore kinase panel; settings: Compound concentration 1.0 uM
[10] = biological target: Death-associated protein kinase 2 (Homo sapiens) (UniProt Q9UIK4); experiment: DAPK2(h) Millipore kinase panel; settings: Compound concentration 1.0 uM
[11] = biological target: Serine/threonine-protein kinase DCLK2 (Homo sapiens) (UniProt Q8N568); experiment: DCAMKL2(h) Millipore kinase panel; settings: Compound concentration 1.0 uM
[12] = biological target: Ephrin type-B receptor 4 (Homo sapiens) (UniProt P54760); experiment: EphB4(h) Millipore kinase panel; settings: Compound concentration 1.0 uM
[13] = biological target: Tyrosine-protein kinase Fer (Homo sapiens) (UniProt P16591); experiment: Fer(h) Millipore kinase panel; settings: Compound concentration 1.0 uM
[14] = biological target: Vascular endothelial growth factor receptor 1 (Homo sapiens) (UniProt P17948); experiment: Flt1(h) Millipore kinase panel; settings: Compound concentration 1.0 uM
[15] = biological target: Vascular endothelial growth factor receptor 3 (Homo sapiens) (UniProt P35916); experiment: Flt4(h) Millipore kinase panel; settings: Compound concentration 1.0 uM
[16] = biological target: Macrophage colony-stimulating factor 1 receptor (Homo sapiens) (UniProt P07333); experiment: Fms(h) Millipore kinase panel; settings: Compound concentration 1.0 uM
[17] = biological target: Tyrosine-protein kinase HCK (Homo sapiens) (UniProt P08631); experiment: Hck(h) Millipore kinase panel; settings: Compound concentration 1.0 uM
[18] = biological target: Leucine-rich repeat serine/threonine-protein kinase 2 (Homo sapiens) (UniProt Q5S007); experiment: LRRK2(h) Millipore kinase panel; settings: Compound concentration 1.0 uM
[19] = biological target: Mitogen-activated protein kinase kinase kinase kinase 3 (Homo sapiens) (UniProt Q8IVH8); experiment: MAP4K3(h) Millipore kinase panel; settings: Compound concentration 1.0 uM
[20] = biological target: Tyrosine-protein kinase Mer (Homo sapiens) (UniProt Q12866); experiment: Mer(h) Millipore kinase panel; settings: Compound concentration 1.0 uM
[21] = biological target: MAPK/MAK/MRK overlapping kinase (Homo sapiens) (UniProt Q9UQ07); experiment: MOK(h) Millipore kinase panel; settings: Compound concentration 1.0 uM
[22] = biological target: Serine/threonine-protein kinase MRCK alpha (Homo sapiens) (UniProt Q5VT25); experiment: MRCKalpha(h) Millipore kinase panel; settings: Compound concentration 1.0 uM
[23] = biological target: Serine/threonine-protein kinase PAK 1 (Homo sapiens) (UniProt Q13153); experiment: PAK1(h) Millipore kinase panel; settings: Compound concentration 1.0 uM
[24] = biological target: Serine/threonine-protein kinase PAK 2 (Homo sapiens) (UniProt Q13177); experiment: PAK2(h) Millipore kinase panel; settings: Compound concentration 1.0 uM
[25] = biological target: Serine/threonine-protein kinase PAK 4 (Homo sapiens) (UniProt O96013); experiment: PAK4(h) Millipore kinase panel; settings: Compound concentration 1.0 uM
[26] = biological target: Serine/threonine-protein kinase MARK2 (Homo sapiens) (UniProt Q7KZI7); experiment: PAR-1Balpha(h) Millipore kinase panel; settings: Compound concentration 1.0 uM
[27] = biological target: Serine/threonine-protein kinase D1 (Homo sapiens) (UniProt Q15139); experiment: PKCmu(h) Millipore kinase panel; settings: Compound concentration 1.0 uM
[28] = biological target: Serine/threonine-protein kinase D3 (Homo sapiens) (UniProt O94806); experiment: PKD3(h) Millipore kinase panel; settings: Compound concentration 1.0 uM
[29] = biological target: Serine/threonine-protein kinase PRP4 homolog (Homo sapiens) (UniProt Q13523); experiment: PRP4(h) Millipore kinase panel; settings: Compound concentration 1.0 uM
[30] = biological target: Rho-associated protein kinase 1 (Homo sapiens) (UniProt Q13464); experiment: ROCK-I(h) Millipore kinase panel; settings: Compound concentration 1.0 uM
[31] = biological target: Rho-associated protein kinase 2 (Homo sapiens) (UniProt O75116); experiment: ROCK-II(h) Millipore kinase panel; settings: Compound concentration 1.0 uM
[32] = biological target: Serine/threonine-protein kinase Sgk3 (Homo sapiens) (UniProt Q96BR1); experiment: SGK3(h) Millipore kinase panel; settings: Compound concentration 1.0 uM
[33] = biological target: SNF-related serine/threonine-protein kinase (Homo sapiens) (UniProt Q9NRH2); experiment: SNRK(h) Millipore kinase panel; settings: Compound concentration 1.0 uM
[34] = biological target: SRSF protein kinase 2 (Homo sapiens) (UniProt P78362); experiment: SRPK2(h) Millipore kinase panel; settings: Compound concentration 1.0 uM
[35] = biological target: Tyrosine-protein kinase SYK (Homo sapiens) (UniProt P43405); experiment: Syk(h) Millipore kinase panel; settings: Compound concentration 1.0 uM
[36] = biological target: Serine/threonine-protein kinase TAO2 (Homo sapiens) (UniProt Q9UL54); experiment: TAO2(h) Millipore kinase panel; settings: Compound concentration 1.0 uM
[37] = biological target: BDNF/NT-3 growth factors receptor (Homo sapiens) (UniProt Q16620); experiment: TrkB(h) Millipore kinase panel; settings: Compound concentration 1.0 uM
[38] = biological target: Tau-tubulin kinase 1 (Homo sapiens) (UniProt Q5TCY1); experiment: TTBK1(h) Millipore kinase panel; settings: Compound concentration 1.0 uM
[39] = biological target: Serine/threonine-protein kinase ULK2 (Homo sapiens) (UniProt Q8IYT8); experiment: ULK2(h) Millipore kinase panel; settings: Compound concentration 1.0 uM
[40] = biological target: Serine/threonine-protein kinase VRK1 (Homo sapiens) (UniProt Q99986); experiment: VRK1(h) Millipore kinase panel; settings: Compound concentration 1.0 uM
[41] = biological target: Serine/threonine-protein kinase VRK2 (Homo sapiens) (UniProt Q86Y07); experiment: VRK2(h) Millipore kinase panel; settings: Compound concentration 1.0 uM
[42] = biological target: Mitogen-activated protein kinase 1 (Homo sapiens) (UniProt P28482); experiment: MAPK2(h) Millipore kinase panel; settings: Compound concentration 1.0 uM
[43] = biological target: PI3K p110 beta/p85 alpha (Homo sapiens) (UniProt P27986+P42338); experiment: PI3 Kinase (p110b/p85a)(h) Millipore kinase panel; assay type: protein-complex assay; settings: Compound concentration 1.0 uM
[44] = biological target: Sodium-dependent noradrenaline transporter (Homo sapiens) (UniProt P23975); settings: Compound concentration 10.0 uM
[45] = biological target: GABA-A receptor; anion channel (Rattus norvegicus) (UniProt O09028+P15431+P18506+P18508+P19969+P20236+P23574+P23576+P28471+P28473+P30191+P62813+P63079+P63138+Q91ZM7+Q9ES14); settings: Compound concentration 10.0 uM
[46] = biological target: Beta-1 adrenergic receptor (Homo sapiens) (UniProt P08588); settings: Compound concentration 10.0 uM
[47] = biological target: Estrogen receptor (Homo sapiens) (UniProt P03372); settings: Compound concentration 10.0 uM
[48] = biological target: Activin receptor type-2A (Homo sapiens) (UniProt P27037); experiment: ACTR2(h) Millipore kinase panel; settings: Compound concentration 1.0 uM

`CC[C@@H](Nc1c(C#N)c(-c2ccc(-c3cccc(C)c3F)cc2)nc2cnccc12)C(=O)O` [BAY-091] was tested, and the Ki [1] was 1500 nM, the inhibition [2] was 10.5% and the inhibition [3] was 2.41%. For the same molecule, the inhibition [4] was 23.5%, the inhibition [5] was 8.65% and the inhibition [6] was 11.3%. The inhibition [7] was 7.13%, the inhibition [8] was 9.07% and the inhibition [9] was 3.74%. It also gave an inhibition [10] of -6.79%, an inhibition [11] of -2.01% and an inhibition [12] of 11.8%. For the same molecule, the inhibition [13] was 5.23%, the inhibition [14] was 56.8% and the inhibition [15] was 12.9%. It also gave an inhibition [16] of -5.04%, an inhibition [17] of 0.45% and an inhibition [18] of 12.9%. For the same molecule, the inhibition [19] was 8.29%, the inhibition [20] was 10.2% and the inhibition [21] was 5.44%. It also gave an inhibition [22] of -4.99%, an inhibition [23] of 23.8% and an inhibition [24] of 24.9%. It also gave an inhibition [25] of 1.36%, an inhibition [26] of 6.75% and an inhibition [27] of 12.7%. For the same molecule, the inhibition [28] was 12.6%, the inhibition [29] was 18.9% and the inhibition [30] was -2.77%. It also gave an inhibition [31] of -0.6%, an inhibition [32] of 6.09% and an inhibition [33] of 10.3%. It also gave an inhibition [34] of -8.51%, an inhibition [35] of 10.4% and an inhibition [36] of 10.3%. The inhibition [37] was 2.08%, the inhibition [38] was -2.05% and the inhibition [39] was 5.46%. It also gave an inhibition [40] of 3.04%, an inhibition [41] of 4.1% and an inhibition [42] of 7.74%. For the same molecule, the inhibition [43] was 0.43%, the inhibition [44] was -2.64% and the inhibition [45] was 29.9%. The inhibition [46] was 2%, the inhibition [47] was 10% and the inhibition [48] was 1.17%.
